The nature of series [1]: HPLC retention time of cationic lipid in lipid nanoparticles relative to cholesterol. In kind it is physicochemical. The note with it: HPLC retention time of lipid in LNP (AD-1661 payload) relative to cholesterol; in min (unit assumed). The procedure: Furthermore, the HPLC retention time for each biodegradable cationic lipid was measured in lipid nanoparticles prepared from them. The lipid nanoparticles were prepared as described in Example 35 using AD-1661 as the payload. The retention times are reported in the table below relative to the retention time for cholesterol.
The HPLC buffer used was a mixture of two solutions (Solution #1 and Solution #2). • Solution #1: 80% methanol/20% 10 mM NH4HCO3 • Solution #2: 80% methanol/20% isopropanol

Series [2] can be described thus: Lipid nanoparticle size by dynamic laser light scattering before and after overnight dialysis. Type of series: physicochemical. The following applies: intensity weighted diameter, LNP with AD-1661; for LNPs Size (nm) change: size after dialysis: after overnight dialysis; for LNPs Size (nm) change: size before dialysis: before overnight dialysis. The procedure:
The size of the lipid nanoparticles was measured before and after undergoing dialysis overnight. In general, greater changes in lipid nanoparticle size are indicative of lesser stability.
Dynamic laser light scattering was used to determine the lipid nanoparticle size (expressed as the intensity weighted diameter) with a Zetasizer (Malvern Instruments, Inc. of Westborough, Mass.). All measurements were made at 532 nm wavelength at the scattering angle of 173° using normal resolution mode as the analysis model.

On to `CCCCCCCC/C=C\COC(=O)CCCCCCCC(CCCCCCCC(=O)OC/C=C\CCCCCCCC)OC(=O)CCCN(C)C`, for which the “t(lipid) − t(chol)” value in series [1] was 1.44. In series [2], the “LNPs Size (nm) change: size after dialysis” value turned out to be 67 nm and the “LNPs Size (nm) change: size before dialysis” value worked out at 60 nm.

In the case of `CCCCCC(CCCCC)CCOC(=O)CCCCCCCC(CCCCCCCC(=O)OCCC(CCCCC)CCCCC)OC(=O)CCCN(C)C`, in series [1], the “t(lipid) − t(chol)” value was 2.365. For the same molecule, in series [2], the “LNPs Size (nm) change: size after dialysis” value was 56 -> 56 nm and the “LNPs Size (nm) change: size before dialysis” value is given as 56 -> 56 nm.

For the molecule `CCCCCC/C=C\COC(=O)C(C)CCCCCCC(CCCCCCC(C)C(=O)OC/C=C\CCCCCC)OC(=O)CCCN(C)C` (stereo not drawn), the “t(lipid) − t(chol)” value in series [1] is 0.848. For the same molecule, in series [2], the “LNPs Size (nm) change: size after dialysis” value was determined as 77 nm and the “LNPs Size (nm) change: size before dialysis” value was 73 nm.

`CCCCCC(CCCCC)CCOC(=O)CCCCCCCCCC(CCCCCCCCCC(=O)OCCC(CCCCC)CCCCC)OC(=O)CCCN(C)C`: the “t(lipid) − t(chol)” value in series [1] is given as 3.178.

As for `CN(C)CCCC(=O)OC(CCCCCCCC/C=C\CCCCCCCC(=O)OCC(C)(C)C)CCCCCCCC/C=C\CCCCCCCC(=O)OCC(C)(C)C`, the “t(lipid) − t(chol)” value in series [1] came to 2.707.

As to `CC(C)CCC(COC(=O)CCCCCCCCCC(CCCCCCCCCC(=O)OCC(CCC(C)C)C(C)C)OC(=O)CCCN(C)C)C(C)C` (stereo not drawn), the “t(lipid) − t(chol)” value in series [1] amounted to 1.751. Also, in series [2], the “LNPs Size (nm) change: size after dialysis” value is given as 60 nm and the “LNPs Size (nm) change: size before dialysis” value is 59 nm.

Turning to `CC(C)CCC(CCOC(=O)CCCCCCCCCC(CCCCCCCCCC(=O)OCCC(CCC(C)C)C(C)C)OC(=O)CCCN(C)C)C(C)C` (stereo not drawn), the “t(lipid) − t(chol)” value in series [1] came out at 2.106.

In the case of `CCCCCCCCCC/C=C\COC(=O)CCCCCCCC(CCCCCCCC(=O)OC/C=C\CCCCCCCCCC)OC(=O)CCCN(C)C`, the “t(lipid) − t(chol)” value in series [1] is listed as 2.219. Moreover, in series [2], the “LNPs Size (nm) change: size after dialysis” value worked out at 67 nm and the “LNPs Size (nm) change: size before dialysis” value came to 68 nm.

The record behind these values is patent US11679158B2, “Biodegradable lipids for the delivery of active agents” (ALNYLAM PHARMACEUTICALS, INC., priority 2011, dated 2023).
